What was measured:
Type in all cases: cell-based
[1] = target: GluN2B-containing NMDA receptors (Homo sapiens, UniProt Q13224); test: Two-electrode voltage-clamp recordings from Xenopus laevis oocytes, GluN2B; details: for I10 μM/ICONTROL (mean ± SEM, %) Glu N2B: 10 μM test compound with glutamate 100 μM and glycine 30 μM, Tables 1-5; for I10 μM/ICONTROL (mean ± SEM, %) Glu N2B / maximal potentiation Glu N2B: percent of response without compound; for IC50 / maximal potentiation Glu N2B: Table 2; for IC50: glutamate 100 μM, glycine 30 μM, Hill fit, read-out: IC50 Glu N2B; for maximal potentiation Glu N2B: in brackets below IC50
Method: (§1) Xenopus laevis oocytes were injected with cRNA encoding the NMDA receptor subunits. Two to seven days after injection, two-electrode voltage-clamp recordings were performed. Extracellular solutions were made from a solutions containing (in mM) 90 NaCl, 3 KCl, 10 HEPES, 0.5 BaCl2, 0.01 EDTA (pH 7.4 with NaOH). Voltage and current electrodes were filled with 0.3 M and 3.0 M KCl, respectively.
(§2) Potency was determined by adding increasing concentrations of test compound to saturating concentrations of glutamate (100 μM) and glycine (30 μM), and the response amplitude measured. The response in the presence of each concentration of test compound plus agonists was expressed as a percent of the response in the absence of test compound.

[2] = target: GluN2C-containing NMDA receptors (Homo sapiens, UniProt Q14957); test: Two-electrode voltage-clamp recordings from Xenopus laevis oocytes, GluN2C; details: for I10 μM/ICONTROL (mean ± SEM, %) Glu N2C: 10 μM test compound with glutamate 100 μM and glycine 30 μM, Tables 1-5; for I10 μM/ICONTROL (mean ± SEM, %) Glu N2C / maximal potentiation Glu N2C: percent of response without compound; for IC50 / maximal potentiation Glu N2C: Table 2; for IC50: glutamate 100 μM, glycine 30 μM, Hill fit, read-out: IC50 Glu N2C; for maximal potentiation Glu N2C: in brackets below IC50
Method: as §1, §2

[3] = target: GluN2D-containing NMDA receptors (Homo sapiens, UniProt O15399); test: Two-electrode voltage-clamp recordings from Xenopus laevis oocytes, GluN2D; details: for I10 μM/ICONTROL (mean ± SEM, %) Glu N2D: 10 μM test compound with glutamate 100 μM and glycine 30 μM, Tables 1-5; for I10 μM/ICONTROL (mean ± SEM, %) Glu N2D / maximal potentiation Glu N2D: percent of response without compound; for IC50 / maximal potentiation Glu N2D: Table 2; for IC50: glutamate 100 μM, glycine 30 μM, Hill fit, read-out: IC50 Glu N2D; for maximal potentiation Glu N2D: in brackets below IC50
Method: as §1, §2

GluN2C-containing NMDA receptors, sequence (Q14957 20-1233, other chains not shown): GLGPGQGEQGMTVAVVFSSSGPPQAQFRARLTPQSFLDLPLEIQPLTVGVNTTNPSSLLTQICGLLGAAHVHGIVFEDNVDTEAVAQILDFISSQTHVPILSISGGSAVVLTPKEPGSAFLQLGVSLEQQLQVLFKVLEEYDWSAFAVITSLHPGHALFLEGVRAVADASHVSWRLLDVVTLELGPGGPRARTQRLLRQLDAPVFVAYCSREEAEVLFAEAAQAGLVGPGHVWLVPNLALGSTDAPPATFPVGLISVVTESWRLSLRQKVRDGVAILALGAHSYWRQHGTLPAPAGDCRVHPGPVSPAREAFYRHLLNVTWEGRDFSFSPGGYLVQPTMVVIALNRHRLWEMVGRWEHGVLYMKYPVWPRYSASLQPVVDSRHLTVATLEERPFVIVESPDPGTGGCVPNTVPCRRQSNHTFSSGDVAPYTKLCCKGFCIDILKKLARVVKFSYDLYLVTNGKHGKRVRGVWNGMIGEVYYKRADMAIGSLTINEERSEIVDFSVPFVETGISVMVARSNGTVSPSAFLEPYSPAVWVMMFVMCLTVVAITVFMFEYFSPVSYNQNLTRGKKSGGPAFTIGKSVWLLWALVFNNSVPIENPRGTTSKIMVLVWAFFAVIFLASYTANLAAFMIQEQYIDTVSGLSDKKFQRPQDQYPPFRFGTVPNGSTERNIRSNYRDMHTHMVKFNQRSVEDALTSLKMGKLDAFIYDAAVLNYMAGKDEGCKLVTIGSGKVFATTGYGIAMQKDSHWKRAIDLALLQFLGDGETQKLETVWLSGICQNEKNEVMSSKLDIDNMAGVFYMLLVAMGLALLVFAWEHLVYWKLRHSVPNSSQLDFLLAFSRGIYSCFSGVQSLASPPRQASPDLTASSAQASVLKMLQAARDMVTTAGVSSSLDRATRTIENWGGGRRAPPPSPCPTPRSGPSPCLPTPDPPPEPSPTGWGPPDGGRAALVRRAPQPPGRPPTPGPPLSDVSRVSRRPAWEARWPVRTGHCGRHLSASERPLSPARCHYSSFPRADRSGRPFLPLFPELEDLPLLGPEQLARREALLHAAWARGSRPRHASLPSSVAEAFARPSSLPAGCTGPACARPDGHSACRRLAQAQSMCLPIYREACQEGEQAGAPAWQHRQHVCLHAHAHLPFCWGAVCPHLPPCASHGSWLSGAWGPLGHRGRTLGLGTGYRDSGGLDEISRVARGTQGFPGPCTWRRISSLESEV
GluN2D-containing NMDA receptors, sequence (O15399 28-1336, other chains not shown): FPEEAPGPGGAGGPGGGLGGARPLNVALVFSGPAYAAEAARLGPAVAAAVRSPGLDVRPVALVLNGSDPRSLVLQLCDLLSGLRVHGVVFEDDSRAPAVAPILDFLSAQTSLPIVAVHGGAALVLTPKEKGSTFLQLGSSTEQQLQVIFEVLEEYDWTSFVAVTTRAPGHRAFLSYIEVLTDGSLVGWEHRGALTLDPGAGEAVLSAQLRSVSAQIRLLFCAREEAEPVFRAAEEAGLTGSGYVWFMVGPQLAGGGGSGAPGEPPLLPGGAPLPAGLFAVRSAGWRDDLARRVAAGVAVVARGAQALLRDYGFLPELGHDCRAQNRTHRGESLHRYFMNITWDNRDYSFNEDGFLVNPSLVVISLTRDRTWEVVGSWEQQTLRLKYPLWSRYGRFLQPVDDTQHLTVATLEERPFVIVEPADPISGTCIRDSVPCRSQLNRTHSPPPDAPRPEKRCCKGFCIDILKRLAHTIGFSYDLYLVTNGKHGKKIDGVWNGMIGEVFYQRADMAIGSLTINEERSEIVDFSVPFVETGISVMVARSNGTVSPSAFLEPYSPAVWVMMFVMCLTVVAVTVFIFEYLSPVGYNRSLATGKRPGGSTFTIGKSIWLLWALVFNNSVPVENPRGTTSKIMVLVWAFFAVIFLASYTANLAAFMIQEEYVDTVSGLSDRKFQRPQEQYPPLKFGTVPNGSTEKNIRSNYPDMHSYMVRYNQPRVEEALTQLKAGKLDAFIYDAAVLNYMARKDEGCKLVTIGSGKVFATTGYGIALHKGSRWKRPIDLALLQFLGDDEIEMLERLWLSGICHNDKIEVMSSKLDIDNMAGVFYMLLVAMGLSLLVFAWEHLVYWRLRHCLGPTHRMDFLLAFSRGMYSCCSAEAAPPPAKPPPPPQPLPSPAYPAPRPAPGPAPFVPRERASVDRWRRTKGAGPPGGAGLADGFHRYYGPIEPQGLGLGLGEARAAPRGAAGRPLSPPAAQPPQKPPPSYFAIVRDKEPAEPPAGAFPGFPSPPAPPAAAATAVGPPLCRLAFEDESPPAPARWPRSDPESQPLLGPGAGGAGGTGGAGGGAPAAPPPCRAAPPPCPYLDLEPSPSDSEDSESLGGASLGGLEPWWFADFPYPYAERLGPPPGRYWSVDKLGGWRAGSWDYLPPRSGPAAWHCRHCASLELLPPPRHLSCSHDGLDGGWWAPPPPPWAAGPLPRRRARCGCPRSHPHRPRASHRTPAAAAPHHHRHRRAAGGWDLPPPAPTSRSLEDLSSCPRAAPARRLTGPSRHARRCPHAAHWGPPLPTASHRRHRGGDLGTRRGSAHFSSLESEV
GluN2B-containing NMDA receptors, sequence (Q13224 27-1484, other chains not shown): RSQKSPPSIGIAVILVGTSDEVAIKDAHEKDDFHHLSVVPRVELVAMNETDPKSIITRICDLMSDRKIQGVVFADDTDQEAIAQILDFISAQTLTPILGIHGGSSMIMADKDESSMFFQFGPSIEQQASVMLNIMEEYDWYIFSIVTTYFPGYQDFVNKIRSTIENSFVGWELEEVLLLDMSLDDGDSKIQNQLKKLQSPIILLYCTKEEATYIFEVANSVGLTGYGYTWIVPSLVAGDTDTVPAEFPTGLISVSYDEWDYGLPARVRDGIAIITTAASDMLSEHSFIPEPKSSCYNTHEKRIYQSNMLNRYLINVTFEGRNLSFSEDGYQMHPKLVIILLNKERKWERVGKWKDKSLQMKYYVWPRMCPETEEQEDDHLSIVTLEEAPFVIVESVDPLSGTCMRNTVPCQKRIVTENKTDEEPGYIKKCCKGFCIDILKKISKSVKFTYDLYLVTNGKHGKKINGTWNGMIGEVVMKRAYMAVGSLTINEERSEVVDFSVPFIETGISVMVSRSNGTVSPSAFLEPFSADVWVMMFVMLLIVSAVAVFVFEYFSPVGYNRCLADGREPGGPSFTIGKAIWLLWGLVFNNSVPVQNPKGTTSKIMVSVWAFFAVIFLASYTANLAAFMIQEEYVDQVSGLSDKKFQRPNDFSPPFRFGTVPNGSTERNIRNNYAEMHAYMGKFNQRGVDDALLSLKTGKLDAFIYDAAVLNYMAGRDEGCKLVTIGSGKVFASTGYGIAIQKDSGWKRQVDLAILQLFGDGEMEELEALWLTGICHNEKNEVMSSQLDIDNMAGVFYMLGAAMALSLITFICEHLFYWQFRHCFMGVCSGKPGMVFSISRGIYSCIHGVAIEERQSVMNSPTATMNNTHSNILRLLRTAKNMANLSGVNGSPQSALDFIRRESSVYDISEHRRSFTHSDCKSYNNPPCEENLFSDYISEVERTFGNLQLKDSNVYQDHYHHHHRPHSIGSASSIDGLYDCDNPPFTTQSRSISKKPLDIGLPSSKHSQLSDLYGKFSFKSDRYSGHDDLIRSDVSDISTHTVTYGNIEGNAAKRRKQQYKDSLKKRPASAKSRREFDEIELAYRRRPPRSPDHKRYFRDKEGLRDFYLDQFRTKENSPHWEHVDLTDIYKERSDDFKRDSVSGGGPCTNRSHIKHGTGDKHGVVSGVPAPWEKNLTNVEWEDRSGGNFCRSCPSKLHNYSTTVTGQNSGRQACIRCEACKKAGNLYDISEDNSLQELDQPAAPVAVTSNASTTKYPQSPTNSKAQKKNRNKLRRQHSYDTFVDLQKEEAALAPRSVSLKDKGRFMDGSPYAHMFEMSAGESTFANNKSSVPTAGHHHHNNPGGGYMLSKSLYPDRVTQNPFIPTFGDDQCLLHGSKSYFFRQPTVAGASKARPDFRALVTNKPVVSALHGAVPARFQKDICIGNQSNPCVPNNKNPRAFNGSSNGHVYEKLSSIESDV

SMILES | I10 μM/ICONTROL (mean ± SEM, %) Glu N2B [1] | I10 μM/ICONTROL (mean ± SEM, %) Glu N2C [2] | I10 μM/ICONTROL (mean ± SEM, %) Glu N2D [3] | IC50 [2] | maximal potentiation Glu N2C [2] | IC50 [3] | maximal potentiation Glu N2D [3] | IC50 [1] | maximal potentiation Glu N2B [1]
COC(=O)[C@@H]1CCCN1C(=O)Cn1cnc2sc(C)c(-c3ccc(Br)cc3)c2c1=O | 109 ± 4.9% | 159 ± 9.5% | 147 ± 12.7% | – | – | – | – | – | –
Cc1sc2ncn(Cc3cn(CCC4OCCCO4)nn3)c(=O)c2c1-c1cccc(Cl)c1 | 89 ± 2.5% | 88 ± 0.5% | 88 ± 3.4% | – | – | – | – | – | –
Cc1sc2ncn(Cc3cnnn3CCC3OCCCO3)c(=O)c2c1-c1cccc(Cl)c1 | 89 ± 2.5% | 92 ± 0.8% | 91 ± 1.3% | – | – | – | – | – | –
COCCn1cc(Cn2cnc3sc(C)c(-c4cccc(Cl)c4)c3c2=O)nn1 | 99 ± 1.9% | 93 ± 2.2% | 84 ± 3.4% | – | – | – | – | – | –
Cc1sc2ncn(CC(=O)N3CCCCC3)c(=O)c2c1-c1ccc(Br)c(Br)c1 [1 / 3,4-Br—Ph / Me / —Npiperidine] | – | 168 ± 13.9% | 143 ± 3.2% | 15 µM | (300) % | 94 µM | (600) % | – | –
Cc1sc2ncn(CC(=O)N3CCCCC3)c(=O)c2c1-c1cc(Br)cc(Br)c1 [1 / 3,5-Br—Ph / Me / —Npiperidine] | – | 232 ± 14.4% | 179 ± 10.1% | 4.3 µM | (233) % | – | – | – | –
Cc1sc2ncn(CC(=O)N3CCCCC3)c(=O)c2c1-c1cc(C(F)(F)F)cc(C(F)(F)F)c1 [1 / 3,5-CF3—Ph / Me / —Npiperidine] | – | – | – | 1.4 µM | (155) % | – | – | – | –
Cc1sc2ncn(CC(=O)c3cccs3)c(=O)c2c1-c1cccc(Cl)c1 [1 / 3-Cl—Ph / Me / 2-thiophene] | 133 ± 3.9% | 125 ± 2.8% | 137 ± 6.3% | 19 µM | (293) % | 15 µM | (224) % | 14 µM | (207) %
CCOC(=O)Cn1cnc2sc(C)c(-c3cccc(Cl)c3)c2c1=O [1 / 3-Cl—Ph / Me / OEt] | 127 ± 4.6% | 141 ± 7.0% | 136 ± 3.0% | 26 µM | (390) % | 16 µM | (245) % | 17 µM | (148) %
Cc1sc2ncn(CC(=O)O)c(=O)c2c1-c1cccc(Cl)c1 [1 / 3-Cl—Ph / Me / OH] | 93 ± 1.2% | 93 ± 1.4% | 89 ± 1.4% | – | – | – | – | – | –
Cc1sc2ncn(CC(=O)Oc3ccccc3)c(=O)c2c1-c1cccc(Cl)c1 [1 / 3-Cl—Ph / Me / OPh] | 96 ± 2.6% | 110 ± 5.9% | 89 ± 1.6% | – | – | – | – | – | –
CCSC(=O)Cn1cnc2sc(C)c(-c3cccc(Cl)c3)c2c1=O [1 / 3-Cl—Ph / Me / SEt] | 95 ± 0.9% | 95 ± 2.8% | 90 ± 1.3% | – | – | – | – | – | –
Cc1sc2ncn(CC(=O)SC(C)(C)C)c(=O)c2c1-c1cccc(Cl)c1 [1 / 3-Cl—Ph / Me / StBu] | 92 ± 4.6% | 87 ± 4.0% | 73 ± 2.6% | – | – | – | – | – | –
Cc1sc2ncn(CC(=O)c3ccc(Cl)cc3Cl)c(=O)c2c1-c1cccc(I)c1 [1 / 3-I—Ph / Me / 2,4-Cl—Ph] | – | 96 ± 4.8% | 93 ± 1.8% | – | – | – | – | – | –
Cc1sc2ncn(CC(=O)c3cccs3)c(=O)c2c1-c1cccc(I)c1 [1 / 3-I—Ph / Me / 2-thiophene] | 129 ± 4.5% | 180 ± 10.7% | 177 ± 7.0% | 9.3 µM | (255) % | 11 µM | (262) % | 7.7 µM | (147) %
COc1cccc(C(=O)Cn2cnc3sc(C)c(-c4cccc(I)c4)c3c2=O)c1 [1 / 3-I—Ph / Me / 3-OMe—Ph] | 107 ± 3.0% | 107 ± 4.9% | 99 ± 4.3% | – | – | – | – | – | –
COc1ccc(C(=O)Cn2cnc3sc(C)c(-c4cccc(I)c4)c3c2=O)cc1 [1 / 3-I—Ph / Me / 4-OMe—Ph] | 84 ± 5.2% | 94 ± 1.94% | 94 ± 1.1% | – | – | – | – | – | –
Cc1sc2ncn(CC(=O)C3CCCC3)c(=O)c2c1-c1cccc(I)c1 [1 / 3-I—Ph / Me / -cyclopentyl] | – | 166 ± 9.5% | 133 ± 3.0% | 9.4 µM | (225) % | 14 µM | (191) % | – | –
CON(C)C(=O)Cn1cnc2sc(C)c(-c3cccc(I)c3)c2c1=O [1 / 3-I—Ph / Me / —N(OMe)Me] | – | 109 ± 4.9% | 119 ± 8.9% | – | – | – | – | – | –
Cc1sc2ncn(CC(=O)N3CCCCC3)c(=O)c2c1-c1cccc(I)c1 [1 / 3-I—Ph / Me / —Npiperidine] | – | 145 ± 11.4% | 124 ± 4.8% | – | – | – | – | – | –
Cc1sc2ncn(CC(=O)N3CCCCC3)c(=O)c2c1-c1ccc(Cl)cc1 [1 / 4-Cl—Ph / Me / —Npiperidine] | – | – | – | 136 µM | (232) % | 52 µM | (163) % | – | –
Cc1ccc(-c2csc3ncn(CC(=O)N4CCC4)c(=O)c23)cc1 [1 / 4-Me—Ph / H / —Nazetidine] | – | – | – | > 100 µM | – | 57 µM | (0) % | – | –

— patent US12006328B2, “Thieno[2,3-d]pyrimidin-4-one derivatives as NMDAR modulators and uses related thereto” (Emory University, priority 2014, dated 2024)
